Values after ≈ are worked out from the molar mass of the structure shown. Like-named read-outs stand apart in the source and are kept apart here.
Columns and labels:
[1] = Maximum tolerated dose (MTD) determination; settings: mouse, in vivo, sc
Procedure: Female CD-1 mice (Charles River Laboratories), 8–10 weeks old, >20 g were used to determine the MTD. Mice were housed individually in stainless steel, wire-bottom cages to minimize access to urine and feces and fed Harlan Teklad Certified Global Diet® with tap water ad libitum. Mice were acclimated to the study room at least 3 days prior to dosing. Mice (3 per group) were dosed with a subcutaneous (SC) bolus injection beginning with 10 mg/kg of the test compound at a concentration of 2 mg/mL. Doses were lowered two-fold for subsequent groups to find the MTD. The dose volume was […], calculated using the weight of the animal on the day of injection. There were 3 dose events, with 2 days between each event. […] Body weights were obtained daily until the day of euthanization with a CO2 overdose. Any mortality during the study was also recorded. MTD data were obtained by Ricerca Biosciences, LLC, Concord, OH, USA. MTD of each HDP mimetic in CD-1 mice was determined and our studies utilized doses beginning with 0.5X MTD.

C. albicans [2] = test: Yeast membrane permeability, propidium iodide incorporation (flow cytometry); format: cell-based, Candida albicans
Procedure: C. albicans was suspended in RPMI/MOPS media to a total concentration of 2 × 10^6 cfu/mL. One ml aliquots of the C. albicans suspension were treated with each mimetic compound at a concentration of 32 µg/mL, using 95% ethanol as positive control. Samples were incubated with the mimetics at 30 °C for 0, 5, 15 and 30 min. After treatment, samples were centrifuged at 5000 rpm for 5 min. Supernatants were removed and pellets were washed twice with 1 mL of PBS. […] Samples were analyzed by flow cytometry (FACSCalibur, Becton Dickinson, Immunocytometry Systems, San Jose, CA, USA) to assess percent uptake of PI.

[3] = system: C. dubliniensis (NCPF3949); test: MIC broth microdilution, C. dublinensis; format: cell-based; settings: Candida dubliniensis, read-out: NAC species MIC, C. dublinensis
Procedure: (§1) A standard invasive candidiasis strain of C. albicans SC5314 was used for peptide mimetic compounds screening. Non-albicans Candida species (NAC) C. dubliniensis (NCPF3949), C. glabrata (ATCC 90030), C. krusei (ATCC 6258), C. parapsilosis (ATCC 22019) and C. tropicalis (ATCC 750) (obtained from the laboratory of David Perlin, PHRI/Rutgers), were cultured on YPD (1% yeast extract, 2% peptone, 2% dextrose, pH 5.7) agar at 37°C and were used for all experimental studies. Fluconazole resistant clinical isolates of C. glabrata from five different patients and C. tropicalis from one patient were collected from the clinical microbiology laboratory, Shands Hospital, University of Florida, Gainesville, FL, USA.
(§2) Candida albicans […], NAC species and fluconazole-resistant clinical isolates of invasive candidiasis strains of C. glabrata and C. tropicalis were used for minimum inhibitory concentration (MIC) and minimum fungicidal concentration (MFC) studies of lead compounds. MICs were determined using the Clinical and Laboratory Standards Institute (CLSI) standard broth microdilution method. Suspensions of C. albicans were prepared by measuring optical density at 595 nm (OD595) of 1.0 in phosphate buffered saline (PBS). HDP mimetic compounds were diluted in 50 µL RPMI/MOPS cell culture medium in a 96-well plate (tissue culture treated; Costar, Corning Incorporated, Corning, NY, USA). To each well, a suspension (50 µL) of Candida was added, and then plate was incubated at 37 °C in a humidified chamber for a period of 24 h. To determine the MFC, a sample (100 µL) from the well defined as having the MIC and the wells with other three higher concentrations were plated onto YPD agar. Candida colonies were observed after 24 h. The MFC is defined as the lowest concentration of compound at which no colonies are observed. All MIC and MFC assays were performed in duplicate.

[4] = Mammalian cell cytotoxicity, MTS viability assay, 3T3; format: cell-based; settings: mouse, 3T3 fibroblasts (ATCC CRL-1658), 3T3 cells, 1 h exposure without serum
Procedure: Cytotoxicity (50% effective concentration (EC50)) was determined against mouse 3T3 fibroblasts (ATCC CRL-1658), OKF6/TERT-1 cells (oral keratinocytes), and human transformed liver HepG2 cells (ATCC HB-8065), using an MTS viability assay (Promega, Fitchburg, WI, USA). Growth medium was replaced with medium without serum, and eight 2-fold dilutions of compound were added. Following incubation for 1 h at 37 °C, compounds were removed, and medium containing serum was returned. Viability was determined using an MTS viability assay (CellTiter 96 aqueous nonradioactive cell proliferation assay, Promega).

C. tropicalis (ATCC 750) = test: MIC broth microdilution, C. tropicalis; format: cell-based; settings: Candida tropicalis, ATCC750; read-out: NAC species MIC, C. tropicalis
Procedure: as §1, §2

[5] = system: Candida albicans, strain SC5314; test: MIC/MFC, CLSI broth microdilution, C. albicans; format: cell-based
Procedure: as §1, §2

whole human blood = test: Hemolysis assay; format: cell-based; settings: 0.5 h, 30 min, 37 °C
Procedure: Peptide mimetic compounds were tested in duplicate using a hemolysis assay previously published. Briefly, two-fold serial dilutions starting at 2 mg/mL in 150 mM NaCl (saline), 20% DMA (Alfa Aesar, Ward Hill, MA, US), or 10% kleptose in saline. 3% saponin (Fluka) in saline was used as a positive control. Each dilution of each compound (25 µL) was plated in a 96-well round bottomed plate and 25 µL of whole human blood (BIORECLAMATION, Westbury, NY, USA) was added to each sample and mixed for 10 second. The blood was Type O, from 2 males and 2 females, collected with potassium EDTA to prevent clotting. Plates were incubated on a shaker for 30 min at 37 °C, then centrifuged at 600× g for 5 min. 5 µL of the supernatant was transferred to a 96-well flat-bottomed plate with 200 µL H2O in each well and mixed for 5 min. Absorbance was read at 405 nm (Spectramax 250, Molecular Devices, San Jose, CA, USA). Percent hemolysis was then calculated as:
P = (OD405 (PMX compound) – OD405 (control))/(OD405 (Saponin) – OD405 (control))
Curves were fitted to report an HC50 (50% hemolysis) value for each compound: […]

C. krusei (ATCC 6258) = test: MIC broth microdilution, C. krusei; format: cell-based, Candida krusei; settings: Pichia kudriavzevii, ATCC6258; read-out: NAC species MIC, C. krusei
Procedure: as §1, §2

[6] = system: C. parapsilosis (ATCC 22019); test: MIC broth microdilution, C. parapsilosis; format: cell-based, Candida parapsilosis; settings: Lodderomyces parapsilosis, ATCC22019; read-out: NAC species MIC, C. parapsilosis
Procedure: as §1, §2

C. glabrata (ATCC 90030) = test: MIC broth microdilution, C. glabrata; format: cell-based, Candida glabrata; settings: Nakaseomyces glabratus, ATCC90030; read-out: NAC species MIC, C. glabrata
Procedure: as §1, §2

C. albicans [7] = test: MIC assay in the presence of CaCl2 (divalent cation inhibition); format: cell-based; settings: Candida albicans, 2.5 mM CaCl2
Procedure: as §2, with “The MFC is defined as the lowest concentration of compound at which no colonies are observed. All MIC and MFC assays were performed in duplicate.” left out
To assess the effect of a divalent cations on the electrostatic interaction between mimetics and cell membrane of yeast, we used calcium chloride at concentrations of 2, 5, 7.5 and 10 […]. […] At each concentration of this cation, the MIC of mimetics were determined by the method described above.

C. albicans SC5314 = test: Immunosuppressed mouse model of invasive candidiasis, kidney burden; format: in vivo, CD-1 mice; settings: 20 mg/kg by gavage 2 h after infection, 24 h, average of four independent experiments
Procedure: C. albicans SC5314 were grown in YPD broth (Difco laboratories, Detroit, MI, USA) and stock cultures were stored at −80 °C. The frozen stocks were first grown on YPD plates and kept at 4 °C. Prior to each experiment, a stock inoculum suspension of Candida was prepared in YPD broth and incubated at 30 °C with shaking at 200 rpm for 12 h. The culture was washed twice with sterile 1X phosphate buffered saline (PBS), counted with a hemocytometer, and diluted with PBS to get the desired concentration of 3.5 × 10^5 cfu/mL. 100 µL was injected intravenously (IV) into each mouse via the tail vein. […]
Male CD-1 mice, 6–8 weeks old (20–22 g), were made neutropenic with two intraperitoneal (IP) injections of 150 mg/kg in 10 mL/kg cyclophosphamide four days and one day before inoculation. […] 2 h after C. albicans inoculation, mimetic compounds were injected subcutaneously (SC) at 0.5X of the MTD (determined by […] as described). Fluconazole (20 mg/kg) was administered to another group by oral gavage at 2 h post inoculation, as a positive control for the experiments, to confirm the ability to quantify an effect on kidney burden. […] Serial dilutions of the tissue homogenates were conducted, 0.1 mL aliquots were spread on YPD agar plates, and the plates incubated at 35 °C overnight. cfu/g kidneys were determined from colony counts. […]

[8] = 32 µg/mL HDP mimetic, C. albicans
[9] = C. albicans SC5314, 50% human serum, read-out: MIC+50% Human serum
[10] = C. albicans SC5314, without human serum
[11] = C. albicans SC5314, without human serum, 24 h, read-out: MIC

Compound | MTD [1] | time to maximum incorporation of PI (C. albicans [2]; [8]) | MIC [3] | EC50 at 1 h [4] | MIC (C. tropicalis (ATCC 750)) | MIC [5, 9] | MFC [5, 10] | MIC [5, 11] | EC50 (whole human blood) | MIC (C. krusei (ATCC 6258)) | MIC [6] | MIC (C. glabrata (ATCC 90030)) | MIC (C. albicans [7]) | log10 reduction in kidney cfu (C. albicans SC5314) | rate of membrane activity (PI incorporation) (C. albicans [2]; 32 µg/mL HDP mimetic, C. albicans, comparison among compounds) | PI entered the cell (C. albicans [2]; positive control, within 7 min)
N=C(N)N1CCN(c2ccc(-c3cc(-c4ccc(N5CCN(C(=N)N)CC5)cc4)ncn3)cc2)CC1 [Compound 1] | 10 mg/kg free base | 30 min | 8 µg/mL (≈ 16.5 µM) | 311 µM | 4 to 8 µg/mL (≈ 8.25 to 16.5 µM) | 4 µg/mL (≈ 8.25 µM) | 8 µg/mL (≈ 16.5 µM) | 4 µg/mL (≈ 8.25 µM) | > 1790 µM | 32 µg/mL (≈ 66 µM) | 4 to 8 µg/mL (≈ 8.25 to 16.5 µM) | 4 µg/mL (≈ 8.25 µM) | – | – | – | –
N=C(N)NCCCc1cc(CCCNC(=N)N)cc(NC(=O)c2ccc(C(=O)Nc3cc(CCCNC(=N)N)cc(CCCNC(=N)N)c3)cc2)c1 [Compound 2] | 10 mg/kg free base | 30 min | 32 µg/mL (≈ 44.9 µM) | 358 µM | 8 µg/mL (≈ 11.2 µM) | 4 µg/mL (≈ 5.61 µM) | 16 µg/mL (≈ 22.4 µM) | 4 µg/mL (≈ 5.61 µM) | > 1160 µM | 8 µg/mL (≈ 11.2 µM) | 1 µg/mL (≈ 1.4 µM) | 8 µg/mL (≈ 11.2 µM) | > 60 µg/mL | – | – | –
OC(Cn1cncn1)(Cn1cncn1)c1ccc(F)cc1F [Fluconazole, fluconazole, reference compound] | – | – | – | – | – | – | – | 0.25 µg/mL (≈ 0.816 µM) | – | – | – | – | – | 3 log | – | –
NCCCOc1cc(OCCCN)cc(-c2ccc3c(c2)c2cc(-c4cc(OCCCN)cc(OCCCN)c4)ccc2n3CCCN)c1 [Compound 4] | 20 mg/kg free base | – | 4 µg/mL (≈ 5.98 µM) | 436 µM | 2 to 4 µg/mL (≈ 2.99 to 5.98 µM) | 4 µg/mL (≈ 5.98 µM) | 8 µg/mL (≈ 12 µM) | 4 µg/mL (≈ 5.98 µM) | > 1170 µM | 16 µg/mL (≈ 23.9 µM) | 2 µg/mL (≈ 2.99 µM) | 2 µg/mL (≈ 2.99 µM) | – | – | most rapid membrane activity | –
CCO [95% ethanol, ethanol, reference compound] | – | – | – | – | – | – | – | – | – | – | – | – | – | – | – | 100%

Source: PMC5872333, “Antifungal Potential of Host Defense Peptide Mimetics in a Mouse Model of Disseminated Candidiasis” (Journal of Fungi, 2018)
